Results: US20070117770A1, “Human ribosomal DNA (rDNA) and ribosomal RNA (rRNA) nucleic acids and uses thereof” (Cylene Pharmaceuticals, Inc., priority 2005, published 2007)

Experiments:
[1] = tested on: rRNA synthesis, HCT-116; assay: PCR assay of rRNA synthesis from 45S rDNA (5' ETS probe); assay type: cell-based; conditions: Homo sapiens; rRNA synthesis, HCT-116; read-out: QPCRrDNA IC50_HCT-116
Procedure: Assays were conducted to determine the effects of compounds on rRNA synthesis from 45S rDNA. In particular, compound A-1 at various concentrations was incubated with cells and tested for an effect on rRNA synthesis after a two hour or four hour incubation with the compound. Synthesized rRNA was quantified by a polymerase chain reaction (PCR) assay. A primer/probe set was designed using Primer Express software and synthesized by Applied Biosystems. The 5′ ETS Probe utilized had the following sequence (@ its 3′ end): 6FAM-TTG ATC CTG CCA GTA GC-MGBNFQ (SEQ ID NO:227). The primer sequences were as follows:
(§1) Mix • 1 ug RNA • 2.5 ul 10× Taq Man buffer • 5.5 ul 25 mM MgCl2 • 5 ul of a mix of dNTP (500 uM each) • 1.2 ul random hexamer primer (2.5 uM stock) • 0.5 ul RNase inhibitor (0.4 units/ul) • 0.6 ul Reverse Transcriptase (1.2 units/ul) • bring to 25 ul total volume with water
(§2) Mix • 5 ul Reverse Transcriptase reaction product • 12.5 ul 2×PCR mix • 1 uM forward primer • 1 uM reverse primer • 0.5 uM Taq Man probe • 500 nM Rox • Adjust to 25 ul final volume with water
(§3) PCR cycles • 95 degrees C. 1 minute • 40 cycles of • 95 degrees C. 15 seconds • 60 degrees C. 1 minute.
(§4) Fluorescence of digested label was detected and quantified. […] The effect of other compounds on rRNA synthesis also were assessed in the assay, and provided in the table hereafter are IC50 values of selected compounds pertaining to rRNA synthesis and cMYC RNA synthesis.

[2] = tested on: cMYC RNA synthesis, HCT-116; assay: PCR control assay of C-myc transcription; assay type: cell-based; conditions: for IC50: Homo sapiens, read-out: QPCRMYC IC50_HCT-116
Procedure: A control assay that detected effects of the compounds on C-myc transcription also was conducted using a primer/probe set purchased from ABI (TaqMan Gene Expression Assay with assay ID: Hs99999003_m1). The following assay protocol was utilized:
as §1, §2, §3, §4

[3] = tested on: 28S rRNA and 18S rRNA (total RNA from HCT116 cells); assay: Human rRNA interaction screening assay (agarose gel electrophoresis mobility shift); assay type: binding; conditions: 1 ug total RNA; 10 uM compound or 0.5 ug/mL PI, 15 min, room temperature
Procedure: RNA was isolated from HCT116 cells (RNeasy kit, QIAGEN) and contacted in vitro with each compound from a library of compounds. In representative assays, 1 ug of total RNA from HCT116 cells was incubated with 0.5 ug/mL of propidium iodide (PI), 10 uM compound A-1 or another compound in the library in a volume of 10 uL for 15 min at room temperature, followed by agarose gel electrophoresis. Fluorescence of the compounds was visualized on each gel. […] Compounds C-1, C-2, C-3, C-4 and C-5 have the following general formula: [drawing 15] [drawing 16]

[4] = target: T1, nucleolin/cMyc QP DNA (Homo sapiens, UniProt P19338); assay: EMSA, nucleolin/QP ligand interaction; assay type: binding; conditions: nucleolin ~250 nM, 32P-labeled ligand 10 or 250 nM, 30 minutes (FIG. 1, FIG. 2)
T1 construct: without the N-terminal acidic stretches domain
T1 sequence (P19338 284-710 limits assumed): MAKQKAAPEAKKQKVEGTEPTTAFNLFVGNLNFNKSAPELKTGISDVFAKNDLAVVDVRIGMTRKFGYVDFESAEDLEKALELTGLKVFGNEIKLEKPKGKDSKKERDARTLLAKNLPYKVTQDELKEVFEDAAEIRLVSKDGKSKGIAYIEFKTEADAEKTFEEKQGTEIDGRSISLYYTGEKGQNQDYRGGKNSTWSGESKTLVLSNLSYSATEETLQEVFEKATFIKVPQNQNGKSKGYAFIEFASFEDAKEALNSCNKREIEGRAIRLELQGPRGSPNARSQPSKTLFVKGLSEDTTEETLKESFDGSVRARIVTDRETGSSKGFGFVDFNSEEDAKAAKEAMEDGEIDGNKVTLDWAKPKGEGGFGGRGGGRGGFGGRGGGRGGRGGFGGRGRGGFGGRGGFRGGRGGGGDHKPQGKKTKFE
Procedure: (§5) The following assays assessed effects of compounds on interactions between nucleolin and nucleic acid ligands capable of forming quadruplex (QP) and hairpin (HP) secondary structures. Nucleic acid ligands tested were a cMyc QP DNA having nucleotide sequence 5′-[…]-3′ (SEQ ID NO: 176) and a HP pre-rRNA region to which nucleolin binds, having the sequence 5′-[…]-3′ (SEQ ID NO: 177). In the assays, recombinant nucleolin (˜250 nM), which was fused to maltose binding protein and had the sequence under accession number NM_005381 without the N-terminal acidic stretches domain, was incubated with each of the two ^32P-labeled nucleic acid ligands (10 or 250 nM). Nucleolin and the nucleic acid ligand were incubated in the presence or absence of a test compound of Formula A-1, B-1, C-6 or C-7 in an incubation buffer (12.5 mM Tris, pH 7.6, 60 mM KCl, 1 mM MgCl2, 0.1 mM EDTA, 1 mM DTT, 5% glycerol, 0.1 mg/ml BSA) for 30 minutes at room temperature. Structures for A-1 and B-1 are shown above and structures for C-6 and C-7 are shown hereafter: [drawing 17] The resulting complexes were separated on a 6% DNA retardation gel using 0.5× TBE with 20 mM KCl as a running buffer (i.e., electrophoresis mobility shift assay (EMSA)).

[5] = target: T2, nucleolin/HP pre-rRNA region (Homo sapiens, UniProt P19338); assay: EMSA, nucleolin/HP ligand interaction; assay type: binding; conditions: nucleolin ~250 nM, 32P-labeled ligand 10 or 250 nM, 30 minutes (FIG. 1, FIG. 2)
T2 construct: without the N-terminal acidic stretches domain
T2 sequence (P19338 284-710 limits assumed): as above
Procedure: as §5

[6] = target: T3, nucleolin (Homo sapiens, UniProt P19338); assay: Filter-binding assay of 32P-labeled quadruplexes and Nucleolin; conditions: for Kd: 0.2 nM 32P-labeled quadruplex, read-out: Kd, apparent dissociation constant of nucleolin protein and the nucleic acid ligand
T3 construct: without the N-terminal acidic stretches domain
T3 sequence (P19338 284-710 limits assumed): as above
Procedure: The assay also was conducted in a filter-binding format. […] The protein-quadruplex mixtures were incubated for 30 min at ambient temperature and filtered through mixed cellulose ester membrane filters (Millipore) with gentle suction. The filters were washed twice with […] of binding buffer, dried and OptiPhase ‘SuperMix’ scintillation cocktail (Perkin Elmer) was added to the wells. Radioactivity was assayed with MicroBeta scintillation counter (Perkin Elmer). Binding curves were constructed and apparent Kd's and Bmax's for the complexes were calculated using the GraphPad Prizm software program (GraphPad Software). In the following table, the nucleic acid ligand is designated in the first column using the nomenclature described herein; the second column provides the nucleotide sequence of the nucleic acid ligand; the third column is the conformation of the ligand as determined by circular dichroism (M is mixed, P is parallel, A is antiparallel, C is complex, SS is single-stranded and ND is not determined); the fourth column is the dissociation constant determined by the filter binding assay of nucleolin protein and the nucleic acid ligand; the fifth column is a Bmax constant determined by the filter binding assay, which is the percent of active nucleic acid ligand in each assay; and the sixth column presents the concentration of Compound A-1 required to dissociate half of the complexed nucleic acid ligand and nucleolin protein, as determined by the EMSA assay described above.

[7] = target: T3, nucleolin; assay: EMSA, relative affinity of nucleic acid ligands for nucleolin; assay type: binding; design: key: +: weakest nucleolin affinity; ++++: strongest nucleolin affinity
Procedure: as §5
The assay also was conducted using nucleic acid ligands derived from human ribosomal DNA. Sequences of these nucleic acids are shown in the preceding example. […] A “+” represents the weakest nucleolin affinity and least interference by compound A-1 and a “++++” represents the strongest nucleolin affinity and greatest interference by compound A-1.

For `O=C(NCCN1CCCC1)c1cn2c3c(c(NCCN4CCCC4)c(F)cc3c1=O)Oc1ccccc1-2` [Compound 1], the IC50 [1] was 50 nM and the IC50 [2] was 10 nM.
`CC(C)N1CCN(c2c(F)cc3c(=O)c(C(=O)NCCN4CCCC4)cn4c3c2Oc2cc(Cl)ccc2-4)CC1` [Compound 2] gave an IC50 [1] of 50 nM and an IC50 [2] of 100 nM.
`CC(C)N1CCN(c2nc3c(cc2F)c(=O)c(C(=O)NCCC2CCCN2C)c2n(C)c4ccc(C#N)cc4n32)CC1` (stereo not shown) [Compound 3] was tested, and the IC50 [1] was 50 nM and the “QPCRMYC IC50_HCT-116” value [2] was “INACTIVE”.
In the case of `CC(=O)N1CCN(c2c(F)cc3c(=O)c(C(=O)NCCN4CCCC4)cn4c3c2Oc2cc(Cl)ccc2-4)CC1` [Compound 4], the IC50 [1] is reported as 50 nM and the IC50 [2] is reported as 300 nM.
Work on `O=C(NCCN1CCCC1)c1cn2c3c(c(N4CCOCC4)c(F)cc3c1=O)Oc1cc(Cl)ccc1-2` [Compound 5] yielded an IC50 [1] of 50 nM and an IC50 [2] of 300 nM.
`CC(=O)N1CCN(c2ccc3c(=O)c(C(=O)NCCN4CCCC4)c4sc5ccccc5n4c3n2)CC1` [Compound 6] showed an IC50 [1] of 80 nM and an IC50 [2] of 300 nM.
`O=C(NCCN1CCOCC1)c1c(=O)c2cnc(N3CCNCC3)nc2n2c1sc1ccccc12` [Compound 7] was tested, and the IC50 [1] was 80 nM and the IC50 [2] was 300 nM.
With `CC(=O)N1CCN(c2ccc3c(=O)n(CCCN4CCCC4)c4nc5ccccc5n4c3n2)CC1` [Compound 8] the IC50 [1] was 50 nM and the IC50 [2] was 300 nM.
`COc1ccc2c(=O)c(C(=O)NCCN3CCCC3)c3sc4ccccc4n3c2n1` [Compound 9] showed an IC50 [1] of 50 nM and an IC50 [2] of 300 nM.
For `CN1CCCC1CCNC(=O)c1cn2c3c(c(N4CCC(c5ccccn5)C4)c(F)cc3c1=O)Oc1cc3ccccc3cc1-2` (stereo not shown) [Compound C-1], the “binding to 28S versus 18S rRNA” value [3] was “selective binding to 28S over 18S”.
`CN1CCCC1CCNC(=O)c1cn2c3c(c(N4CCC(c5ccccn5)C4)c(F)cc3c1=O)Oc1cc3ccccc3cc1-2` (stereo not shown) [Compound C-2] was tested, and the “binding to 28S versus 18S rRNA” value [3] was “selective binding to 28S over 18S”.
`CN1CCCC1CCNC(=O)c1cn2c3c(c(N4CCC(c5ccccn5)C4)c(F)cc3c1=O)Oc1cc3ccccc3cc1-2` (stereo not shown) [Compound C-3] was tested, and the “binding to 28S versus 18S rRNA” value [3] was “less selectivity for 28S over 18S”.
`CN1CCCC1CCNC(=O)c1cn2c3c(c(N4CCC(c5ccccn5)C4)c(F)cc3c1=O)Oc1cc3ccccc3cc1-2` (stereo not shown) [Compound C-4] was tested, and the “binding to 28S versus 18S rRNA” value [3] was “less selectivity for 28S over 18S”.
With `CN1CCCC1CCNC(=O)c1cn2c3c(c(N4CCC(c5ccccn5)C4)c(F)cc3c1=O)Oc1cc3ccccc3cc1-2` (stereo not shown) [Compound C-5] the “binding to 28S versus 18S rRNA” value [3] was “specific binding to 28S over 18S”.
With `CC(=O)N1CCN(c2c(F)cc3c(=O)c(C(=O)NCCN4CCCC4)cn4c3c2Oc2cc(Cl)ccc2-4)CC1` [Compound C-6] the “interference with the nucleolin/QP ligand interaction” value [4] was “interfered with the nucleolin/QP ligand interaction” and the “interference with the nucleolin/HP ligand interaction” value [5] was “did not significantly interfere with the nucleolin/HP ligand interaction”.
In the case of `CC(=O)N1CCN(c2c(F)cc3c(=O)c(C(=O)NCCC4CCCN4C)cn4c3c2Oc2cc3ccccc3cc2-4)CC1` (stereo not shown) [Compound C-7], the “interference with the nucleolin/QP ligand interaction” value [4] is reported as “interfered with the nucleolin/QP ligand interaction” and the “interference with the nucleolin/HP ligand interaction” value [5] is reported as “did not significantly interfere with the nucleolin/HP ligand interaction”.
With `CC[N+](C)(CC)CCC[n+]1c(-c2ccccc2)c2cc(N)ccc2c2ccc(N)cc21.[I-].[I-]` [PI, propidium iodide, reference compound] the “binding to 28S versus 18S rRNA” value [3] was “did not discriminate in its binding to 18S and 28S rRNA”.
“GGGAGGGCGCGCGGGTCGGGG (listed as DNA, chemistry not given here; listed as Homo sapiens) [Compound 8749NT]” was tested, and the “Bmax, percent of active nucleic acid ligand” value (shortened to “Bmax, percent”) [6] was 13%, the Kd [6] was 1.9 nM and the “Affinity for Nucleolin (relative)” value [7] was “+”.
“GGGAGGGGCACGGGCCGGGGGCGGGACGGG (listed as DNA, chemistry not given here; listed as Homo sapiens) [Compound 7733T]” was tested, and the “Bmax, percent” value [6] was 53%, the Kd [6] was 0.8 nM and the “Affinity for Nucleolin (relative)” value [7] was “+”.
“GGGGCGCGGCGGGGGGAGAAGGGTCGGGGCGGCAGGGG (listed as DNA, chemistry not given here; listed as Homo sapiens) [Compound 11028NT]” was tested, and the “Bmax, percent” value [6] was 32%, the Kd [6] was 2.7 nM and the “Affinity for Nucleolin (relative)” value [7] was “+”.
For “GGGGGCGGGCTCCGGCGGGTGCGGGGGTGGGCGGGCGGGGCCGGGGGTGGGGTCGGCGGGGG [Compound 8511NT]”, the “Bmax, percent” value [6] was 100%, the Kd [6] was 0.6 nM and the “Affinity for Nucleolin (relative)” value [7] was “++++”.
“GGGTCGGGGGCGGTGGTGGGCCCGCGGGGG (listed as DNA, chemistry not given here; listed as Homo sapiens) [Compound 6183NT]” was tested, and the “Bmax, percent” value [6] was 26%, the Kd [6] was 2.2 nM and the “Affinity for Nucleolin (relative)” value [7] was “+”.
